Laboratory results as given in patent publication US20260193264A1, “BENZOYPARAZINE PYRAZINES AND THEIR USES” (FOGHORN THERAPEUTICS INC., priority 2022, published 2026).

Key:
[1] = target: T1, HiBit-BRG1 fusion protein in stable HeLa cell line expressing HiBit-BRG1 and LgBit (Homo sapiens, UniProt P51532); assay: HiBiT-BRG1 cell-based degradation assay (Nano-Glo HiBiT, 24 h); details: HeLa HiBit-BRG1/LgBit cells; for Dmax: top dose 30 μM, read-out: BRG1 HiBit Degradation Maximum (%); for DC50: read-out: BRMG1 HiBit Degradation IC50
T1 construct: expressed in transfected cells
T1 sequence (P51532 whole entry, the tested form may be a part): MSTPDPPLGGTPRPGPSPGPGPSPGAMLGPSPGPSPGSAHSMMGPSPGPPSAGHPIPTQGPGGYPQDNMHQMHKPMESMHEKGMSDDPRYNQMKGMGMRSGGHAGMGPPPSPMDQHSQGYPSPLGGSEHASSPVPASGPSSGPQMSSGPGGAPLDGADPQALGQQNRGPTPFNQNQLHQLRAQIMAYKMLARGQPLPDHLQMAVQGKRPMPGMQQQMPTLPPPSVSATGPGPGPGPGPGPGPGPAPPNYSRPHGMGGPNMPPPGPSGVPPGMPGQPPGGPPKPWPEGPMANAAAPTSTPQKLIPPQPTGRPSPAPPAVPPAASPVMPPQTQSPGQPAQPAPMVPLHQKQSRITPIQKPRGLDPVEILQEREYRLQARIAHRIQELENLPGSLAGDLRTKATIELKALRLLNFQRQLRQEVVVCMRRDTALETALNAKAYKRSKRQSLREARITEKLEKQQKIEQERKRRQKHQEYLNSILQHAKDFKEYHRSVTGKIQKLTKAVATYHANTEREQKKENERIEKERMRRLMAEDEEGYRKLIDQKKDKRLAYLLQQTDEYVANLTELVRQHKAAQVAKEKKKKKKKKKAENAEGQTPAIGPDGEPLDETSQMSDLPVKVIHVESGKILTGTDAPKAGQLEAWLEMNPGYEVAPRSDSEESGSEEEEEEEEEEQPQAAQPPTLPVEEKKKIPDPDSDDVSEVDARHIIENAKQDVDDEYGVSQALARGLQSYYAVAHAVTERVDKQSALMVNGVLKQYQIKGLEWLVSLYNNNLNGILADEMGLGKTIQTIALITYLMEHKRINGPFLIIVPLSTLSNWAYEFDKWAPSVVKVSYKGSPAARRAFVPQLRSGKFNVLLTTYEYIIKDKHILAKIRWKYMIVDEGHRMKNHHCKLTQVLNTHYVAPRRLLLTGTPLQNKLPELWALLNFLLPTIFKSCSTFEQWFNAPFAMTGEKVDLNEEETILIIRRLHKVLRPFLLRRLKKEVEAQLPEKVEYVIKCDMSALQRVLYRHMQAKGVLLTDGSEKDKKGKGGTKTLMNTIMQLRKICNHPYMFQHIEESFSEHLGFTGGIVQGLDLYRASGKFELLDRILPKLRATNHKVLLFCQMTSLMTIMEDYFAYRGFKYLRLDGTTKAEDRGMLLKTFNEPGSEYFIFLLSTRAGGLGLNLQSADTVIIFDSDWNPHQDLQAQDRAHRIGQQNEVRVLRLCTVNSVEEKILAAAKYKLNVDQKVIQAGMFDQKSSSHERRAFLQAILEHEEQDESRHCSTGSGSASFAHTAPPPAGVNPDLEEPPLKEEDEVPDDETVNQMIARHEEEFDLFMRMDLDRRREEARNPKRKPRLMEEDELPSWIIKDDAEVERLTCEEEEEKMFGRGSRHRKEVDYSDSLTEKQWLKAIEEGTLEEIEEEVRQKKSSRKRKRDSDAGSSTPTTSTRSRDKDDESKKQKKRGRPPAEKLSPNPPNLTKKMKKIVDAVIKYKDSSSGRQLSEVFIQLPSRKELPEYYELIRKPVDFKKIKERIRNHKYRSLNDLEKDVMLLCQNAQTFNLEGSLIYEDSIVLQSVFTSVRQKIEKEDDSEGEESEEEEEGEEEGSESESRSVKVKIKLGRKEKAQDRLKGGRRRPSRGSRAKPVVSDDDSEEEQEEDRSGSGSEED
Summary of the method: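 Stable HeLa line co-expressing HiBiT-BRG1 and LgBiT, compound-treated 24 h; luminescence read after Nano-Glo HiBiT lytic reagent. % degradation normalised between DMSO (high control) and 2 μM reference BRM/BRG1 degrader (low control).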

[2] = target: T2, HiBiT-BRM fusion protein in stable HeLa cell line (Homo sapiens, UniProt P51531); assay: HiBiT-BRM cell-based degradation assay (Nano-Glo HiBiT Lytic Detection, 24 h); design: DC50: scale not given here; details: HeLa HiBiT-BRM cells; for DC50: read-out: BRM HiBit Degradation IC50; for BRM HiBit Degradation Maximum (%): top dose 30 μM
T2 construct: expressed in transfected cells
T2 sequence (P51531 whole entry, the tested form may be a part): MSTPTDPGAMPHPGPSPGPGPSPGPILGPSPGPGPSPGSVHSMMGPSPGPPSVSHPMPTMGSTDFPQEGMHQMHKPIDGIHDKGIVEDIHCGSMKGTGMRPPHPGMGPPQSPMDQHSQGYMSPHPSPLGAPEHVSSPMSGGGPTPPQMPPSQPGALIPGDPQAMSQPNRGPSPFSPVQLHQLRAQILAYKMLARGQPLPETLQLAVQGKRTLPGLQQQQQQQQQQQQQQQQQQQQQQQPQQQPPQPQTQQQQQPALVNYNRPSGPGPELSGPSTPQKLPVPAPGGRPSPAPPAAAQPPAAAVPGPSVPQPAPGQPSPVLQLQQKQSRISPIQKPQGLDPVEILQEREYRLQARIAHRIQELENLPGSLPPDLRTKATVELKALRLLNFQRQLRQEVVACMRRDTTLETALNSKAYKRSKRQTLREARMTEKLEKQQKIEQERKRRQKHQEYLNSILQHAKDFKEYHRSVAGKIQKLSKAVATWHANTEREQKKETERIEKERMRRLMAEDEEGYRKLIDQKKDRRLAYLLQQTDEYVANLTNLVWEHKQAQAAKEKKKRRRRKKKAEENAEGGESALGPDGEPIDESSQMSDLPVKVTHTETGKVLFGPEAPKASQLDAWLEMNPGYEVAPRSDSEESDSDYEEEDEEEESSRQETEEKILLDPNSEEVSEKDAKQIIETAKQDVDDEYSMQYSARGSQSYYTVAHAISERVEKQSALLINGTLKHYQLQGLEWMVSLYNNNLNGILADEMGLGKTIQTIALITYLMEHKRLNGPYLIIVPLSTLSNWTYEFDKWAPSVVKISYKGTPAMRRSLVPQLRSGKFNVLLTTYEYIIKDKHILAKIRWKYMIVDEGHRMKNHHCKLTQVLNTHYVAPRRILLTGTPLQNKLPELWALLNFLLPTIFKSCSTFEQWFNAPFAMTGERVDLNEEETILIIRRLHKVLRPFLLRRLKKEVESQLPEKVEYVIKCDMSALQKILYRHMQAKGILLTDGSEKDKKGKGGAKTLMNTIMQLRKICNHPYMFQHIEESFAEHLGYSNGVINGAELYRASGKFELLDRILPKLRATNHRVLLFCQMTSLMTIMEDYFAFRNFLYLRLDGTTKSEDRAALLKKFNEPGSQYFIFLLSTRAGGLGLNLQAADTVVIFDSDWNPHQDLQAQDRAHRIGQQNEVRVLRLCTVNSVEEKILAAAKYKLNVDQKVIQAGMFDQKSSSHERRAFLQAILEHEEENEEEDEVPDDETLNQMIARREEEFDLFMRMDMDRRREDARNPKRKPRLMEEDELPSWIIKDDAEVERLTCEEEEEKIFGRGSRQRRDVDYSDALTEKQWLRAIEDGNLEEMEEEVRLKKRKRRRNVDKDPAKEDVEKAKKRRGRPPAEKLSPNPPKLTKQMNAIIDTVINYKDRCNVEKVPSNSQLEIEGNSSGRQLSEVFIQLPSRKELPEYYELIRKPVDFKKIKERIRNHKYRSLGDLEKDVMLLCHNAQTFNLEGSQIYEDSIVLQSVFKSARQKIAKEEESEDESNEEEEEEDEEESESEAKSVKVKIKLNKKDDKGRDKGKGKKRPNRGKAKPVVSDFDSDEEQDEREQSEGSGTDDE
Summary of the method: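 Stable HiBiT-BRM HeLa cells were treated with 10-point 3-fold serial dilutions (30 μM final top dose, duplicate) for 24 h, then lysed with LgBiT-containing detection reagent and luminescence read. Degradation % was normalised to DMSO (high control) and 2 μM reference BRM/BRG1 degrader (low control).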

| Structure (SMILES) | Dmax [1] [%] | DC50 [2] [nM] | BRM HiBit Degradation Maximum (%) [2] | DC50 [1] [nM] |
| --- | --- | --- | --- | --- |
| Cc1ncsc1-c1ccc([C@H](C)NC(=O)[C@@H]2C[C@@H](O)CN2C(=O)[C@@H](c2cc(N3C[C@@H]4[C@H](C3)[C@H]4c3ccc4cc(-c5ccccc5O)nnc4c3)no2)C(C)C)cc1 [Compound 59, (2S,4R)-4-hydroxy-1-((R)-2-(3-((1R,5S,6S)-6-(3-(2-hydroxyphenyl)cinnolin-7-yl)-3-azabicyclo[3.1.0]hexan-3-yl)isoxazol-5-yl)-3-methylbutanoyl)-N-((S)-1-(4-(4-methylthiazol-5-yl)phenyl)ethyl)pyrrolidine-2-carboxamide] | < 50 | < 10 | A (“A” indicates maximum degradation ≥75%) |  |
| Cc1ncsc1-c1ccc([C@H](C)NC(=O)[C@@H]2C[C@@H](O)CN2C(=O)[C@@H](c2cc(N3CC[C@H](c4ccc5cc(-c6ccccc6O)nnc5c4)C3)no2)C(C)C)cc1 [Compound 60, (2S,4R)-4-hydroxy-1-((R)-2-(3-((R)-3-(3-(2-hydroxyphenyl)cinnolin-7-yl)pyrrolidin-1-yl)isoxazol-5-yl)-3-methylbutanoyl)-N-((S)-1-(4-(4-methylthiazol-5-yl)phenyl)ethyl)pyrrolidine-2-carboxamide] | > 75 | < 10 | A (“A” indicates maximum degradation ≥75%) | < 10 |
| Cc1ncsc1-c1ccc([C@H](C)NC(=O)[C@@H]2C[C@@H](O)CN2C(=O)[C@@H](c2cc(N3CCC(c4ccc5nnc(-c6ccccc6O)cc5c4)CC3)no2)C(C)C)cc1 [Compound 61, (2S,4R)-4-hydroxy-1-((R)-2-(3-(4-(3-(2-hydroxyphenyl)cinnolin-6-yl)piperidin-1-yl)isoxazol-5-yl)-3-methylbutanoyl)-N-((S)-1-(4-(4-methylthiazol-5-yl)phenyl)ethyl)pyrrolidine-2-carboxamide] | < 50 | > 10 | A (“A” indicates maximum degradation ≥75%) |  |
| Cc1ncsc1-c1ccc([C@H](C)NC(=O)[C@@H]2C[C@@H](O)CN2C(=O)[C@@H](c2cc(N3CC4(CCC(c5ccc6nnc(-c7ccccc7O)cc6c5)CC4)C3)no2)C(C)C)cc1 [Compound 62, (2S,4R)-4-hydroxy-1-((R)-2-(3-(7-(3-(2-hydroxyphenyl)cinnolin-6-yl)-2-azaspiro[3.5]nonan-2-yl)isoxazol-5-yl)-3-methylbutanoyl)-N-((S)-1-(4-(4-methylthiazol-5-yl)phenyl)ethyl)pyrrolidine-2-carboxamide] | > 75 | < 10 | A (“A” indicates maximum degradation ≥75%) | > 10 |
| Cc1cc(-c2cc([C@H](C(=O)N3C[C@H](O)C[C@H]3C(=O)N[C@@H](C)c3ccc(-c4scnc4C)cc3)C(C)C)on2)cnc1N1CCC(c2ccc3nnc(-c4ccccc4O)cc3c2)CC1 [Compound 64, (2S,4R)-4-hydroxy-1-((R)-2-(3-(6-(4-(3-(2-hydroxyphenyl)cinnolin-6-yl)piperidin-1-yl)-5-methylpyridin-3-yl)isoxazol-5-yl)-3-methylbutanoyl)-N-((S)-1-(4-(4-methylthiazol-5-yl)phenyl)ethyl)pyrrolidine-2-carboxamide] | > 50 | < 10 | A (“A” indicates maximum degradation ≥75%) | > 10 |
| Cc1ncsc1-c1ccc([C@H](C)NC(=O)[C@@H]2C[C@@H](O)CN2C(=O)[C@@H](c2cc(N3CC4(CN(c5ccc6nnc(-c7ccccc7O)cc6c5)C4)C3)no2)C(C)C)cc1 [Compound 66, (2S,4R)-4-hydroxy-1-((R)-2-(3-(6-(3-(2-hydroxyphenyl)cinnolin-6-yl)-2,6-diazaspiro[3.3]heptan-2-yl)isoxazol-5-yl)-3-methylbutanoyl)-N-((S)-1-(4-(4-methylthiazol-5-yl)phenyl)ethyl)pyrrolidine-2-carboxamide] | < 50 | < 10 | A (“A” indicates maximum degradation ≥75%) |  |
| Cc1ncsc1-c1ccc([C@H](C)NC(=O)[C@@H]2C[C@@H](O)CN2C(=O)[C@@H](c2cc(N3CCC4(CC3)CN(c3ccc5nnc(-c6ccccc6O)cc5c3)C4)no2)C(C)C)cc1 [Compound 67, (2S,4R)-4-hydroxy-1-((R)-2-(3-(2-(3-(2-hydroxyphenyl)cinnolin-6-yl)-2,7-diazaspiro[3.5]nonan-7-yl)isoxazol-5-yl)-3-methylbutanoyl)-N-((S)-1-(4-(4-methylthiazol-5-yl)phenyl)ethyl)pyrrolidine-2-carboxamide] | > 75 | < 10 | A (“A” indicates maximum degradation ≥75%) | > 10 |
| Cc1ncsc1-c1ccc([C@H](C)NC(=O)[C@@H]2C[C@@H](O)CN2C(=O)[C@@H](c2cc(-c3cnc(N4CC(c5cc6nnc(-c7ccccc7O)cc6cc5C5CC5)C4)nc3)no2)C(C)C)cc1 [Compound 68, (2S,4R)-1-((R)-2-(3-(2-(3-(6-cyclopropyl-3-(2-hydroxyphenyl)cinnolin-7-yl)azetidin-1-yl)pyrimidin-5-yl)isoxazol-5-yl)-3-methylbutanoyl)-4-hydroxy-N-((S)-1-(4-(4-methylthiazol-5-yl)phenyl)ethyl)pyrrolidine-2-carboxamide] | > 75 | < 10 | A (“A” indicates maximum degradation ≥75%) | > 10 |
| Cc1nc(N2CCC(c3ccc4nnc(-c5ccccc5O)cc4c3)CC2)ccc1-c1cc([C@H](C(=O)N2C[C@H](O)C[C@H]2C(=O)N[C@@H](C)c2ccc(-c3scnc3C)cc2)C(C)C)on1 [Compound 69, (2S,4R)-4-hydroxy-1-((R)-2-(3-(6-(4-(3-(2-hydroxyphenyl)cinnolin-6-yl)piperidin-1-yl)-2-methylpyridin-3-yl)isoxazol-5-yl)-3-methylbutanoyl)-N-((S)-1-(4-(4-methylthiazol-5-yl)phenyl)ethyl)pyrrolidine-2-carboxamide] | > 50 | < 10 | A (“A” indicates maximum degradation ≥75%) | > 100 |
| Cc1cc(N2CCC(c3ccc4nnc(-c5ccccc5O)cc4c3)CC2)ncc1-c1cc([C@H](C(=O)N2C[C@H](O)C[C@H]2C(=O)N[C@@H](C)c2ccc(-c3scnc3C)cc2)C(C)C)on1 [Compound 70, (2S,4R)-4-hydroxy-1-((R)-2-(3-(6-(4-(3-(2-hydroxyphenyl)cinnolin-6-yl)piperidin-1-yl)-4-methylpyridin-3-yl)isoxazol-5-yl)-3-methylbutanoyl)-N-((S)-1-(4-(4-methylthiazol-5-yl)phenyl)ethyl)pyrrolidine-2-carboxamide] | > 50 | > 10 | A (“A” indicates maximum degradation ≥75%) | > 10 |
| Cc1ncsc1-c1ccc([C@H](C)NC(=O)[C@@H]2C[C@@H](O)CN2C(=O)[C@@H](c2cc(N3CCC4(CC3)CC(c3ccc5nnc(-c6ccccc6O)cc5c3)C4)no2)C(C)C)cc1 [Compound 71, (2S,4R)-4-hydroxy-1-[(2R)-2-(3-{2-[3-(2-hydroxyphenyl)cinnolin-6-yl]-7-azaspiro[3.5]nonan-7-yl}-1,2-oxazol-5-yl)-3-methylbutanoyl]-N-[(1S)-1-[4-(4-methyl-1,3-thiazol-5-yl)phenyl]ethyl]pyrrolidine-2-carboxamide] | > 75 | < 10 | A (“A” indicates maximum degradation ≥75%) | < 10 |
| Cc1ncsc1-c1ccc([C@H](C)NC(=O)[C@@H]2C[C@@H](O)CN2C(=O)[C@@H](c2cc(N3CCC4(CCN(c5ccc6nnc(-c7ccccc7O)cc6c5)C4)CC3)no2)C(C)C)cc1 [Compound 72, (2S,4R)-4-hydroxy-1-((R)-2-(3-(2-(3-(2-hydroxyphenyl)cinnolin-6-yl)-2,8-diazaspiro [4.5]decan-8-yl)isoxazol-5-yl)-3-methylbutanoyl)-N-((S)-1-(4-(4-methylthiazol-5-yl)phenyl)ethyl)pyrrolidine-2-carboxamide] | > 75 | < 10 | A (“A” indicates maximum degradation ≥75%) | > 10 |
| Cc1ncsc1-c1ccc([C@H](C)NC(=O)[C@@H]2C[C@@H](O)CN2C(=O)[C@@H](c2cc(N3CC[C@@H](c4ccc5nnc(-c6ccccc6O)cc5c4)C3)no2)C(C)C)cc1 [Compound 73, (2S,4R)-4-hydroxy-1-((R)-2-(3-((S)-3-(3-(2-hydroxyphenyl)cinnolin-6-yl)pyrrolidin-1-yl)isoxazol-5-yl)-3-methylbutanoyl)-N-((S)-1-(4-(4-methylthiazol-5-yl)phenyl)ethyl)pyrrolidine-2-carboxamide] | < 50 | < 10 | A (“A” indicates maximum degradation ≥75%) |  |
| Cc1ncsc1-c1ccc([C@H](C)NC(=O)[C@@H]2C[C@@H](O)CN2C(=O)[C@@H](c2cc(N3CCC(c4ccc5cc(-c6ccccc6O)nnc5c4)CC3)no2)C(C)C)cc1 [Compound 74, (2S,4R)-4-hydroxy-1-((R)-2-(3-(4-(3-(2-hydroxyphenyl)cinnolin-7-yl)piperidin-1-yl)isoxazol-5-yl)-3-methylbutanoyl)-N-((S)-1-(4-(4-methylthiazol-5-yl)phenyl)ethyl)pyrrolidine-2-carboxamide] | < 50 | < 10 | A (“A” indicates maximum degradation ≥75%) |  |
